{"source": "ChEMBL document CHEMBL1201862", "about": "“PubChem BioAssay data set” (2004)", "assay_in_all_cases": "NCI-60 cell line screen, 48 h", "key": {"U-251": {"test_system": "U-251"}, "EKVX": {"test_system": "EKVX"}, "CCRF-CEM": {"test_system": "CCRF-CEM"}, "A549": {"test_system": "A549"}, "IGROV-1": {"test_system": "IGROV-1"}, "SNB-19": {"test_system": "SNB-19"}, "SN12C": {"test_system": "SN12C"}, "HCT-15": {"test_system": "HCT-15"}, "TK-10": {"test_system": "TK-10"}, "NCI-H23": {"test_system": "NCI-H23"}, "OVCAR-5": {"test_system": "OVCAR-5"}, "MCF7": {"test_system": "MCF7"}, "SK-MEL-2": {"test_system": "SK-MEL-2"}, "HL-60": {"test_system": "HL-60"}, "MDA-N": {"test_system": "MDA-N"}, "MDA-MB-435": {"test_system": "MDA-MB-435"}, "SW-620": {"test_system": "SW-620"}, "ACHN": {"test_system": "ACHN"}, "T47D": {"test_system": "T47D"}, "COLO 205": {"test_system": "COLO 205"}, "786-0": {"test_system": "786-0"}, "NCI-H522": {"test_system": "NCI-H522"}, "PC-3": {"test_system": "PC-3"}, "Malme-3M": {"test_system": "Malme-3M"}, "RPMI-8226": {"test_system": "RPMI-8226"}, "CAKI-1": {"test_system": "CAKI-1"}, "OVCAR-4": {"test_system": "OVCAR-4"}, "NCI/ADR-RES": {"test_system": "NCI/ADR-RES"}, "NCI-H226": {"test_system": "NCI-H226"}, "HCC 2998": {"test_system": "HCC 2998"}, "HOP-92": {"test_system": "HOP-92"}, "SNB-75": {"test_system": "SNB-75"}, "K562": {"test_system": "K562"}, "M14": {"test_system": "M14"}, "UACC-257": {"test_system": "UACC-257"}, "DU-145": {"test_system": "DU-145"}, "OVCAR-8": {"test_system": "OVCAR-8"}, "SK-MEL-5": {"test_system": "SK-MEL-5"}, "HCT-116": {"test_system": "HCT-116"}, "Hs-578T": {"test_system": "Hs-578T"}, "SR": {"test_system": "SR"}, "SF-539": {"test_system": "SF-539"}, "SK-MEL-28": {"test_system": "SK-MEL-28"}, "UACC-62": {"test_system": "UACC-62"}, "HOP-62": {"test_system": "HOP-62"}, "SF-295": {"test_system": "SF-295"}, "HT-29": {"test_system": "HT-29"}, "SK-OV-3": {"test_system": "SK-OV-3"}, "KM12": {"test_system": "KM12"}, "LOX IMVI": {"test_system": "LOX IMVI"}, "MDA-MB-231": {"test_system": "MDA-MB-231"}, "UO-31": {"test_system": "UO-31"}, "BT-549": {"test_system": "BT-549"}, "MOLT-4": {"test_system": "MOLT-4"}, "NCI-H460": {"test_system": "NCI-H460"}, "OVCAR-3": {"test_system": "OVCAR-3"}, "RXF 393": {"test_system": "RXF 393"}, "SF-268": {"test_system": "SF-268"}}, "note": "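Growth conditions: 96-well plates. Treatment: test compound, 48 hours, 5 concentrations. Analysis: linear interpolation between bracketing concentrations; unreached endpoints set to highest concentration. GI50 is the concentration that inhibits growth by half.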 Activity calls are given as the source filed them. Rule as the data show it: active = GI50 up to about 1.1 µM and inactive = higher."}
{"compound": "C=C(C)C(O)C(O)C[C@@H](C)C1CC[C@]23C[C@]12CCC1[C@@]2(C)CCC(OC(C)=O)C(C)(C)C2CC(OC2OC(CO)C(O)C(O)C2O)[C@]13C", "note": "(stereo not given in full)", "values": [{"measurement": "GI50", "setting": "U-251", "result": "15.7 µM (inactive)"}, {"measurement": "GI50", "setting": "EKVX", "result": "42.2 µM (inactive)"}, {"measurement": "GI50", "setting": "CCRF-CEM", "result": "14.2 µM (inactive)"}, {"measurement": "GI50", "setting": "A549", "result": "50 µM (inactive)"}, {"measurement": "GI50", "setting": "IGROV-1", "result": "15.3 µM (inactive)"}, {"measurement": "GI50", "setting": "SNB-19", "result": "20 µM (inactive)"}, {"measurement": "GI50", "setting": "SN12C", "result": "16.8 µM (inactive)"}, {"measurement": "GI50", "setting": "HCT-15", "result": 40.9, "unit": "µM"}, {"measurement": "GI50", "setting": "TK-10", "result": "20.8 µM (inactive)"}, {"measurement": "GI50", "setting": "NCI-H23", "result": "19.2 µM (inactive)"}, {"measurement": "GI50", "setting": "OVCAR-5", "result": "20.9 µM (inactive)"}, {"measurement": "GI50", "setting": "MCF7", "result": "17 µM (inactive)"}, {"measurement": "GI50", "setting": "SK-MEL-2", "result": "16.6 µM (inactive)"}, {"measurement": "GI50", "setting": "HL-60", "result": "18.1 µM (inactive)"}, {"measurement": "GI50", "setting": "MDA-N", "result": "17.3 µM (inactive)"}, {"measurement": "GI50", "setting": "MDA-MB-435", "result": "17.5 µM (inactive)"}, {"measurement": "GI50", "setting": "SW-620", "result": "16.7 µM (inactive)"}, {"measurement": "GI50", "setting": "ACHN", "result": "31.6 µM (inactive)"}, {"measurement": "GI50", "setting": "T47D", "result": "17.4 µM (inactive)"}, {"measurement": "GI50", "setting": "COLO 205", "result": "17.6 µM (inactive)"}, {"measurement": "GI50", "setting": "786-0", "result": "19.1 µM (inactive)"}, {"measurement": "GI50", "setting": "NCI-H522", "result": "17 µM (inactive)"}, {"measurement": "GI50", "setting": "PC-3", "result": "18.4 µM (inactive)"}, {"measurement": "GI50", "setting": "Malme-3M", "result": "17.5 µM (inactive)"}, {"measurement": "GI50", "setting": "RPMI-8226", "result": "21.5 µM (inactive)"}, {"measurement": "GI50", "setting": "CAKI-1", "result": "> 100 µM (inactive)"}, {"measurement": "GI50", "setting": "OVCAR-4", "result": "16 µM (inactive)"}, {"measurement": "GI50", "setting": "NCI/ADR-RES", "result": "> 100 µM (inactive)"}, {"measurement": "GI50", "setting": "NCI-H226", "result": "20.6 µM (inactive)"}, {"measurement": "GI50", "setting": "HCC 2998", "result": "15.7 µM (inactive)"}, {"measurement": "GI50", "setting": "HOP-92", "result": "12.9 µM (inactive)"}, {"measurement": "GI50", "setting": "SNB-75", "result": "19.6 µM (inactive)"}, {"measurement": "GI50", "setting": "K562", "result": "20.1 µM (inactive)"}, {"measurement": "GI50", "setting": "M14", "result": "15.2 µM (inactive)"}, {"measurement": "GI50", "setting": "UACC-257", "result": "17 µM (inactive)"}, {"measurement": "GI50", "setting": "DU-145", "result": "21.2 µM (inactive)"}, {"measurement": "GI50", "setting": "OVCAR-8", "result": "19.5 µM (inactive)"}, {"measurement": "GI50", "setting": "SK-MEL-5", "result": "18.9 µM (inactive)"}, {"measurement": "GI50", "setting": "HCT-116", "result": "15.9 µM (inactive)"}, {"measurement": "GI50", "setting": "Hs-578T", "result": "21 µM (inactive)"}, {"measurement": "GI50", "setting": "SR", "result": "18.7 µM (inactive)"}, {"measurement": "GI50", "setting": "SF-539", "result": "14.6 µM (inactive)"}, {"measurement": "GI50", "setting": "SK-MEL-28", "result": "22.5 µM (inactive)"}, {"measurement": "GI50", "setting": "UACC-62", "result": "17.7 µM (inactive)"}, {"measurement": "GI50", "setting": "HOP-62", "result": "16.7 µM (inactive)"}, {"measurement": "GI50", "setting": "SF-295", "result": "18.9 µM (inactive)"}, {"measurement": "GI50", "setting": "HT-29", "result": "18.2 µM (inactive)"}, {"measurement": "GI50", "setting": "SK-OV-3", "result": "20.9 µM (inactive)"}, {"measurement": "GI50", "setting": "KM12", "result": "17.7 µM (inactive)"}, {"measurement": "GI50", "setting": "LOX IMVI", "result": "17.6 µM (inactive)"}, {"measurement": "GI50", "setting": "MDA-MB-231", "result": "15 µM (inactive)"}, {"measurement": "GI50", "setting": "UO-31", "result": "> 100 µM (inactive)"}, {"measurement": "GI50", "setting": "BT-549", "result": "14.5 µM (inactive)"}, {"measurement": "GI50", "setting": "MOLT-4", "result": "18.5 µM (inactive)"}, {"measurement": "GI50", "setting": "NCI-H460", "result": "17.9 µM (inactive)"}, {"measurement": "GI50", "setting": "OVCAR-3", "result": "17.6 µM (inactive)"}, {"measurement": "GI50", "setting": "RXF 393", "result": "15.4 µM (inactive)"}, {"measurement": "GI50", "setting": "SF-268", "result": "18.3 µM (inactive)"}]}
{"compound": "C=C1C(=O)O[C@H]2C3OC3(C)CC/C=C(/C(=O)OC)[C@@H](OC(C)=O)[C@H](OC(=O)C3(C)OC3C)[C@H]12", "note": "(stereo not given in full)", "values": [{"measurement": "GI50", "setting": "SNB-19", "result": "> 7.5 µM (inactive)"}, {"measurement": "GI50", "setting": "OVCAR-5", "result": "2.94 µM (inactive)"}, {"measurement": "GI50", "setting": "MCF7", "result": "1.12 µM (active)"}, {"measurement": "GI50", "setting": "HL-60", "result": "0.196 µM (active)"}, {"measurement": "GI50", "setting": "MDA-N", "result": "1.65 µM (inactive)"}, {"measurement": "GI50", "setting": "MDA-MB-435", "result": "2.05 µM (inactive)"}, {"measurement": "GI50", "setting": "T47D", "result": "0.989 µM (active)"}, {"measurement": "GI50", "setting": "PC-3", "result": "2.17 µM (inactive)"}, {"measurement": "GI50", "setting": "RPMI-8226", "result": "0.297 µM (active)"}, {"measurement": "GI50", "setting": "NCI/ADR-RES", "result": "3.73 µM (inactive)"}, {"measurement": "GI50", "setting": "HOP-92", "result": "1.61 µM (inactive)"}, {"measurement": "GI50", "setting": "K562", "result": "0.299 µM (active)"}, {"measurement": "GI50", "setting": "DU-145", "result": "13.6 µM (inactive)"}, {"measurement": "GI50", "setting": "Hs-578T", "result": "7.8 µM (inactive)"}, {"measurement": "GI50", "setting": "SR", "result": "0.186 µM (active)"}, {"measurement": "GI50", "setting": "MDA-MB-231", "result": "2.07 µM (inactive)"}, {"measurement": "GI50", "setting": "BT-549", "result": "1.04 µM (active)"}]}
